From article PMC4640093, “Lipophilic prodrugs of nucleoside triphosphates as biochemical probes and potential antivirals” (Nature Communications, 2015)

What was measured:
[1] = Chemical hydrolysis in PBS, pH 7.3; assay type: physicochemical; conditions: for t1/2(1) PBS, pH=7.3: removal of first masking unit (half-lives of 3); for t1/2(1) PBS, pH=7.3 / t1/2(2) PBS, pH=7.3: PBS pH 7.3, 37 °C; for t1/2(2) PBS, pH=7.3: second hydrolysis step, half-lives of intermediate 4 to give d4TTP 19
Experimental: Stock solutions (50 mM in DMSO-d6) of the appropriate compounds were prepared. After dilution of 11 μl with 100 μl Millipore water and 189 μl DMSO-d6 to 1.9 mM hydrolysis solutions the reaction was started by the addition of 300 μl PBS (50 mM, pH 7.3). The solution was incubated at 37 °C in a thermomixer. An initial aliquot (25 μl) was taken directly and analysed by analytical HPLC at 265–266 nm. Further aliquots were taken for monitoring the kinetic hydrolysis. The exponential decay curves (pseudo-first order) based on absolute integral values were calculated with commercially available software (OriginPro 9.0G) and yielded the half-lives t1/2(1) and t1/2(2) of the prodrugs via one determination.

pig liver esterase (PLE) = assay: Enzymatic hydrolysis with pig liver esterase (PLE) in PBS; assay type: in vitro ADME; conditions: PLE in PBS pH 7.3, 37 °C; for t1/2(1) PLE: removal of first masking unit (half-lives of 3); for t1/2(2) PLE: second hydrolysis step, half-lives of intermediate 4
Experimental: Furthermore, 140 μl of the 6.0 mM solution was diluted with 105 μl DMSO-d6 and 700 μl 50 mM PBS buffer. The reaction was started by addition of 52.5 μl of PLE in PBS buffer (3 mg ml^−1) and the mixture was incubated at 37 °C in a thermomixer. At different times, aliquots (125 μl) were taken and treated as follows: (a) for 3a–g,l,m and 4a,e the reaction was stopped by addition to 132.5 μl MeOH. […] (b) For 3h,i,k,n and 4j, the sample was directly frozen in liquid nitrogen.

HIV-1(IIIB) = assay: Anti-HIV activity assay, HIV-1 in wild-type CEM/0 cells; assay type: cell-based; conditions: HIV-induced giant cell formation, mean±s.d., n=2–3
Experimental: (§1) Inhibition of HIV-1(IIIB)- and HIV-2(ROD)-induced cytopathicity in wild-type CEM/0 and TK-deficient CEM/TK^− cell cultures was measured in microtitre 96-well plates containing ∼3 × 10^5 CEM cells ml^−1 infected with 100 CCID50 of HIV per millilitre and containing appropriate dilutions of the test compounds. After 4−5 days of incubation at 37 °C in a CO2-controlled humidified atmosphere, CEM giant (syncytium) cell formation was examined microscopically. The EC50 (50% effective concentration) was defined as the compound concentration required to inhibit HIV-induced giant cell formation by 50%.

HIV-2(ROD) [2] = assay: Anti-HIV activity assay, HIV-2 in wild-type CEM/0 cells; assay type: cell-based; conditions: read-out: EC50 CEM HIV-2
Experimental: as §1

HIV-2(ROD) [3] = assay: Anti-HIV activity assay, HIV-2 in TK-deficient CEM/TK− cells; assay type: cell-based; conditions: thymidine kinase-deficient CEM/TK− cells, mean±s.d., n=2–3
Experimental: as §1

CD4+ T-cell (CEM) = assay: Cytotoxicity: inhibition of CEM cell proliferation; assay type: cell-based, human; conditions: 50% cytostatic concentration, mean±s.d., n=2–3
HIV RT = target: T1, HIV RT (Human immunodeficiency virus type 1 group M subtype B, UniProt P03366); assay: Primer extension assay with HIV reverse transcriptase using PLE hydrolysate; assay type: biochemical; conditions: hydrolysate after complete consumption of prodrug and intermediate; 2.5 μM, 37 °C, 10 min
T1 construct: Primer extension assays with HIV reverse transcriptase; purchased Roboklon
Experimental: To confirm the prodrug concept and thus the direct successful release of the biologically active triphosphate metabolite, the prodrug 3e was exposed to PLE and the hydrolysis monitored with RP-18-HPLC. After complete consumption of 3e as well as its intermediate 4e the solvents were removed. For the template/primer extension assay (Fig. 4a), HIV RT was incubated with the PLE hydrolysate as such (T*) or with the PLE hydrolysate in the additional presence of dCTP (T*, C), or dCTP+dGTP (T*, C, G) or all natural 2′-deoxynucleotides (N*). […] In addition, TriPPPro-TTP 3r was synthesized (Fig. 5) and also investigated in the same way. […] The primer could be fully extended till 30 nt when T* was added in the presence of dCTP and dGTP, as also the N* and N samples could.
The used polymerase HIV RT was obtained from Roboklon. The primer and template were purchased from Life Technologies.
The primer extension assays were performed under the following conditions:
The primer was labelled using [γ^32P]-ATP according to standard techniques. After 5-min incubation at 95 °C in 20 mM Tris-HCl (pH 7.6) and 50 mM NaCl, the hybridization/annealing of the primer to the template strand was achieved by a cooling phase from 95 to 20 °C over 3 h. […]

[4] = Enzyme-catalysed hydrolysis in CEM cell extracts; conditions: human CEM cell extract, 37 °C
Experimental: The hydrolysis mixtures were analysed by means of analytical RP-18-HPLC.
A volume of 10 μl of the appropriate 50 mM DMSO-d6 stock solution was diluted to 6.0 mM hydrolysis solution by addition of 73.3 μl DMSO-d6. Seven different samples including 10 μl water and 10 μl hydrolysis solution were prepared. The reaction was started by addition of 50 μl human CEM cell extract and the mixture was incubated at 37 °C for different time periods of hydrolysis. The work-up depended on the particular compound: (a) for 3a–f,l,m,p and 4a,e the reactions were stopped by addition of 150 μl MeOH. The solution was kept on ice for 5 min followed by centrifugation for 5 min (13,000 r.p.m.). The supernatants were filtered (Chromafil RC-20/15 MS, 0.2 μm) and stored in liquid nitrogen. (b) For 3g–i,k,n and 4j, the samples were directly frozen in liquid nitrogen. The solution was defrosted followed by ultrasonication for 10 min. After centrifugation for 5 min the supernatants were filtered (Chromafil AO-20/3, 0.2 μm) and stored at −196 °C. (c) For 3j the mixture was diluted with 70 μl THF (HPLC grade) and frozen in liquid nitrogen followed by defrosting, ultrasonication, centrifugation, filtration and stored as described for (b). Samples were defrosted and 50–80 μl were subjected to HPLC analysis.
Human CD4^+ T-lymphocyte CEM cells were grown in RPMI-1640-based cell culture medium to a final density of ∼3·10^6 cells ml^−1. Then, cells were centrifuged for 10 min at 1,250 r.p.m. at 4 °C, washed twice with cold PBS and the pellet was resuspended at 10^8 cells ml^−1 and sonicated (Hielscher Ultrasound Techn., 100% amplitude, three·times for 10 s) to destroy cell integrity. The resulting cell suspension was then centrifuged at 10,000 r.p.m. to remove cell debris, and the supernatant divided into aliquots before being frozen at −80 °C and used.

[5] = Cytotoxicity: inhibition of CEM cell proliferation; assay type: cell-based, human; conditions: human, CEM cells (CD4+ T-cells), 50% cytostatic concentration, mean±s.d., n=2–3
[6] = wild-type CEM cells, HIV-induced giant cell formation, mean±s.d., n=2–3

Row | t1/2(1) PBS, pH=7.3 [1] | t1/2(2) PBS, pH=7.3 [1] | t1/2(1) PLE (pig liver esterase (PLE)) | EC50 (HIV-1(IIIB)) | EC50 (HIV-2(ROD) [2]; [6]) | EC50 (HIV-2(ROD) [3]) | t1/2(1) CEM [4] | SMILES | t1/2(2) PLE (pig liver esterase (PLE)) | CC50 (CD4+ T-cell (CEM)) | primer extension by HIV RT with PLE hydrolysate of the prodrug (HIV RT) | time in which amount of thymine doubles (cleavage of the glycosidic bond) ([1]; long chemical hydrolysis time periods) | EC50 (HIV-1(IIIB); Human immunodeficiency virus 1, IIIB, CCRF-CEM) | EC50 (HIV-2(ROD) [2]; Human immunodeficiency virus 2, CCRF-CEM) | EC50 (HIV-2(ROD) [3]; Human immunodeficiency virus 2) | CC50 [5]
1 | 82 h | 590 h | 0.12 h | 360 ± 60 nM | 470 ± 100 nM | 1260 nM | 2.6 h | CCCCCCCCOC(=O)Oc1ccc(COP(=O)(OCc2ccc(OC(=O)OCCCCCCCC)cc2)OP(=O)(O)OP(=O)(O)OC[C@@H]2C=C[C@H](n3cc(C)c(=O)[nH]c3=O)O2)cc1 [3m, γ-Bis-(4-octyloxycarbonyloxybenzyl)-d4TTP] | 17 h | 51000 ± 5000 nM | – | – | – | – | – | –
2 | 99 h | 631 h | 44 h | 500 ± 140 nM | 690 ± 210 nM | 1260 nM | 3.0 h | CCCCCCCCCCCCOC(=O)Oc1ccc(COP(=O)(OCc2ccc(OC(=O)OCCCCCCCCCCCC)cc2)OP(=O)(O)OP(=O)(O)OC[C@@H]2C=C[C@H](n3cc(C)c(=O)[nH]c3=O)O2)cc1 [3n, γ-Bis-(4-dodecyloxycarbonyloxybenzyl)-d4TTP] | – | 41000 ± 12000 nM | – | – | – | – | – | –
3 | – | – | – | – | – | – | – | Cc1cn([C@H]2C=C[C@@H](CO)O2)c(=O)[nH]c1=O [d4T, 3′-deoxy-2′,3′-didehydrothymidine, reference compound] | – | – | – | 63 h | 330 ± 110 nM | 890 nM | 150000 ± 9000 nM | 79000 ± 3000 nM

Row | SMILES | t1/2(1) PBS, pH=7.3 [1] | t1/2(2) PBS, pH=7.3 [1] | t1/2(1) PLE (pig liver esterase (PLE)) | EC50 (HIV-1(IIIB)) | EC50 (HIV-2(ROD) [2]; [6]) | EC50 (HIV-2(ROD) [3]) | t1/2(1) CEM [4] | t1/2(2) PLE (pig liver esterase (PLE)) | CC50 (CD4+ T-cell (CEM)) | primer extension by HIV RT with PLE hydrolysate of the prodrug (HIV RT) | time in which amount of thymine doubles (cleavage of the glycosidic bond) ([1]; long chemical hydrolysis time periods) | EC50 (HIV-1(IIIB); Human immunodeficiency virus 1, IIIB, CCRF-CEM) | EC50 (HIV-2(ROD) [2]; Human immunodeficiency virus 2, CCRF-CEM) | EC50 (HIV-2(ROD) [3]; Human immunodeficiency virus 2) | CC50 [5]
4 | CCCCCCCCC(=O)Oc1ccc(COP(=O)(OCc2ccc(OC(=O)CCCCCCCC)cc2)OP(=O)(O)OP(=O)(O)OC[C@@H]2C=C[C@H](n3cc(C)c(=O)[nH]c3=O)O2)cc1 [3e, γ-Bis-(4-nonanoyloxybenzyl)-d4TTP] | 52 h | 390 h | 0.013 h | 310 ± 10 nM | 620 ± 300 nM | 2260 ± 1030 nM | 2.5 h | 1.6 h | 52000 ± 1000 nM | immediate DNA chain termination | – | – | – | – | –
